Tests used:
[1] = In vitro cytotoxicity / potentiation of Actinomycin D in human KB epidermoid carcinoma cells, wildtype KB 3-1 (MTT); type: cell-based; details: human, kb 3-1 cells, fraction of untreated cultures, read-out: Cytotoxicity, normalized absorbance, Wildtype KB 3-1, 0 (no Act D); for viability at 96 h, 1 µM: 1 μM potentiating agent alone; for viability at 96 h, 10 µM: 10 μM potentiating agent alone
[2] = system: human KB epidermoid carcinoma cells, wildtype KB 3-1; test: as above; type: cell-based; details: 96 h, fraction of Act D alone
[3] = in vitro; type: cell-based, Chinese hamster; details: hamster, cho auxb1 cells
[4] = In vitro cytotoxicity / potentiation of Actinomycin D in human KB epidermoid carcinoma cells, drug resistant KB V-1 (MTT); type: cell-based; details: human, kb v-1 cells, fraction of untreated cultures, read-out: Cytotoxicity, normalized absorbance, Drug Resistant KB V-1, 0 (no Act D); for viability at 96 h, 1 µM: 1 μM potentiating agent alone; for viability at 96 h, 10 µM: 10 μM potentiating agent alone
[5] = system: human KB epidermoid carcinoma cells, drug resistant KB V-1; test: as above; type: cell-based; details: 96 h, fraction of Act D alone
[6] = In vitro cytotoxicity / potentiation of Actinomycin D in Chinese hamster ovary cells, drug resistant C5S32 (MTT); type: cell-based; details: hamster, cho c5s32 cells, fraction of untreated cultures (1.00), read-out: Cytotoxicity, normalized absorbance, Drug Resistant C5S32, 0 (no Act D); for viability at 96 h, 1 µM: 1 μM potentiating agent alone; for viability at 96 h, 10 µM: 10 μM potentiating agent alone
[7] = system: Chinese hamster ovary (CHO) cells, drug resistant C5S32; test: as above; type: cell-based; details: 96 h, fraction of Act D alone (1.00)
[8] = system: resistant sublines of murine leukemia cells; details: cited from earlier work
[9] = 1 μM potentiating agent + Act D 0.1 nM
[10] = 10 μM potentiating agent + Act D 0.1 nM
[11] = 1 μM potentiating agent + Act D 20 nM
[12] = 10 μM potentiating agent + Act D 20 nM
[13] = 1 μM potentiating agent + Act D 0.5 μM
[14] = 10 μM potentiating agent + Act D 0.5 μM

| Structure (SMILES) | viability at 96 h, 1 µM [1] [%] | viability at 96 h, 10 µM [1] [%] | Synergism with Actinomycin D, normalized absorbance, Wildtype KB 3-1, +ACT D [2, 9] | Synergism with Actinomycin D, normalized absorbance, Wildtype KB 3-1, +ACT D [2, 10] | viability at 96 h, 1 µM [3] [%] | viability at 96 h, 10 µM [3] [%] | viability at 96 h, 1 µM [4] [%] | viability at 96 h, 10 µM [4] [%] | Synergism with Actinomycin D, normalized absorbance, Drug Resistant KB V-1, +ACT D [5, 11] | Synergism with Actinomycin D, normalized absorbance, Drug Resistant KB V-1, +ACT D [5, 12] | viability at 96 h, 1 µM [6] [%] | viability at 96 h, 10 µM [6] [%] | Synergism with Actinomycin D, normalized absorbance, Drug Resistant C5S32, +ACT D [7, 13] | Synergism with Actinomycin D, normalized absorbance, Drug Resistant C5S32, +ACT D [7, 14] | enhancement of the activity of antitumor agents against resistant sublines of murine leukemia cells [8] |
| --- | --- | --- | --- | --- | --- | --- | --- | --- | --- | --- | --- | --- | --- | --- | --- |
| CCN(CC)CC/C=C1/c2ccccc2COc2ccc(Br)cc21 [(I), (Z)-3-(2-Bromo-6,11-dihydrodibenz [b,e]oxepin-11-ylidene)-N,N-diethylpropylamine] | 99 | 30 | 0.99 | 0.40 | 90 | 92 | 98 | 34 | 0.95 | 0.04 | 95 | 100 | 0.77 | 0.36 |  |
| Brc1cccc2c1OCc1ccccc1C2=CCN1CCCC1 [(J), 1-[2-(4-Bromo-6,11-dihydrodibenz[b,e]oxepin-11-ylidine)-ethyl]pyrrolidine 60% Z, 40% E] | 89 | 80 | 0.85 | 0.77 | 100 | 100 | 88 | 45 | 0.74 | 0.01 | 80 | 29 | 0.66 | 0.12 |  |
| Brc1ccc2c(c1)/C(=C/CCN1CCCC1)c1ccccc1CO2 [(K), (E)-1-[3-(2-Bromo-6,11-dihydrodibenz [b,e]-oxepin-11-ylidene)propyl]pyrrolidine] | 85 | 100 | 0.77 | 0.03 | 83 | 87 | 86 | 8 | 0.88 | 0.13 | 100 | 100 | 0.79 | 0.28 |  |
| CN(C)CCC=C1c2ccc(Br)cc2COc2ccccc21 [(L), (E)/(Z) -3-(8-Bromo-6,11-dihydrodibenz [b,e]-oxepine-11-ylidene)-N,N-dimethylpropylamine (80% Z:20% E)] | 100 | 97 |  | 0.94 | 83 | 81 | 98 | 51 | 1.00 | 0.23 | 92 | 99 | 0.85 | 0.42 |  |
| Brc1ccc2c(c1)/C(=C/CCN1CCCC1)c1cc(Br)ccc1OC2 [(O), (Z)-1-[3-(2,9-dibromo-6,11-dihydrodibenz [b,e]-oxepin-11-ylidene)propyl]pyrrolidine] | 79 | 64 | 0.81 | 0.73 | 100 | 93 | 74 | 7 | 0.78 | 0.06 | 48 | 35 | 0.58 | 0.38 |  |
| CN(C)CC/C=C1\c2ccccc2COc2ccc(F)cc21 [(P), (E)-3-(2-fluoro-6,11-dihydrodibenz [b,e]oxepin-11-ylidine)-N,N-dimethylpropylamine] | 65 | 65 | 0.72 | 0.71 | 100 | 100 | 73 | 52 | 0.72 | 0.58 | 61 | 31 | 0.70 | 0.38 |  |
| CN(C)CC/C=C1/c2ccccc2COc2ccc(F)cc21 [(Q), (Z)-3-(2-fluoro-6,11-dihydrodibenz [b,e]oxepin-11-ylidene)-N,N-dimethylpropylamine] | 92 | 77 | 0.91 | 0.78 | 97 | 93 | 86 | 80 | 0.83 | 0.65 | 53 | 33 | 0.69 | 0.37 |  |
| Brc1ccc2c(c1)/C(=C\CCN1CCCC1)c1cc(Br)ccc1OC2 [(R), (E)-1-[3-(2,9-dibromo-6,11-dihydrodibenz [b,e]-oxepin-11-ylidene)propyl]pyrrolidine] | 78 | 36 | 0.84 | 0.34 | 99 | 95 | 87 | 6 | 0.90 | 0.02 | 50 | 11 | 0.52 | 0.11 |  |
| Fc1ccc2c(c1)/C(=C/CCN1CCCC1)c1ccccc1CO2 [(S), (E)-1-[3-(2-fluoro-6,11-dihydrodibenz [b,e]-oxepin-11-ylidene)propyl]pyrrolidine] | 77 | 67 | 0.79 | 0.72 | 91 | 88 | 89 | 72 | 0.84 | 0.48 | 100 | 100 | 0.94 | 0.58 |  |
| Fc1ccc2c(c1)/C(=C\CCN1CCCC1)c1ccccc1CO2 [(T), (Z)-1-[3-(2-fluoro-6,11-dihydrodibenz [b,e]-oxepin-11-ylidene)propyl]pyrrolidine] | 86 | 81 | 0.90 | 0.83 | 100 | 100 | 96 | 84 | 0.92 | 0.64 | 100 | 100 | 1.00 | 0.53 |  |
| COc1ccc(CCN(C)CCCC(C#N)(c2ccc(OC)c(OC)c2)C(C)C)cc1OC (stereo not shown) [Verapamil] |  |  |  |  |  |  |  |  |  |  |  |  |  |  | enhance the activity of antitumor agents |
| CCN(CC)CCn1c(=O)c(Cc2ccc(OC)cc2)nc2ccccc21 [caroverine] |  |  |  |  |  |  |  |  |  |  |  |  |  |  | enhance the activity of antitumor agents |
| CN(C)CCCN1c2ccccc2CCc2ccc(Cl)cc21 [clomipramine] |  |  |  |  |  |  |  |  |  |  |  |  |  |  | enhance the activity of antitumor agents |

— patent US5395610A, “Agents for potentiating the effects of antitumor agents and combating multiple drug resistance” (Burroughs-Wellcome Co., priority 1989, dated 1995)
